# Data from PMC7450057, “Enhancing intracellular accumulation and target engagement of PROTACs with reversible covalent chemistry” (Nature Communications, 2020).
# Where “and” joins values, the source holds several entries; their conditions need not be identical. Equal values may be shown once.
# Experiments:
# [1] = Permeability by lipid-PAMPA method (Pharmaron); type: in vitro ADME; details: PAMPA; for recovery at 16 h, 10 μM: Recovery%; for Papp at 16 h, 10 μM: pH 7.4
# Protocol: The permeability of compounds was measured using Lipid-PAMPA method by Pharmaron. Preparation of stock solutions: testosterone and methotrexate were used as control compounds in this assay. The stock solutions of positive controls were prepared in DMSO or acetonitrile at the concentration of 10 mM. Prepare a stock solution of compounds in DMSO at the concentration of 10 mM, and further dilute with PBS (pH 7.4). […]
# Assay procedures: prepare a 1.8% solution (w/v) of lecithin in dodecane, and sonicate the mixture to ensure a complete dissolution. Carefully pipette 5 μL of the lecithin/dodecane mixture into each acceptor plate well (top compartment), avoiding pipette tip contact with the membrane. Immediately after the application of the artificial membrane (within 10 min), add 300 μL of PBS (pH 7.4) solution to each well of the acceptor plate. Add 300 μL of drug-containing solutions to each well of the donor plate (bottom compartment) in triplicate. Slowly and carefully place the acceptor plate into the donor plate, making sure the underside of the membrane is in contact with the drug-containing solutions in all wells. Replace the plate lid and incubate at 25 °C, 60 rpm for 16 h. After incubation, aliquots of 50 μL from each well of acceptor and donor plate are transferred into a 96-well plate. Add 450 μL of methanol (containing IS: 100 nM Alprazolam, 200 nM Caffeine, 100 nM Tolbutamide) into each well. Cover with plate lid. Vortex at 750 rpm for 100 s. Samples were centrifuged at 3220 × g for 20 min. Determine the compound concentrations by LC/MS/MS. The effective permeability (Pe), in units of centimeter per second, can be calculated using the following equation: LogPe=LogC×−Ln1−drugacceptor/drugequilibrium
# MOLM-14 cells = assay: AlamarBlue cell viability assay, MOLM-14; details: for IC50: Homo sapiens, MOLM-14, 72 h, read-out: Cell viability IC50, MOLM-14 cells, 72 h, Alamar Blue; for Cell viability, MOML-14: Supplementary Figure 7, replicates; for MOLM-14 Cell Viability%: Figure 2f, 5 replicates
# Protocol: (§1) The IC50 was calculated using GraphPad Prism software with a four-parameter dose-response curve fit.
# C481S mutant BTK = biological target: T1, C481S mutant BTK (Homo sapiens, UniProt Q06187, C481S); assay: BTK degradation in XLA cells overexpressing C481S mutant BTK (western blot); type: cell-based; details: 24 h
# T1 construct: expressed in transfected cells; host or cells: XLA cells (gift from Dr. Woyach)
# Protocol: XLA cells overexpressing wild-type BTK or mutant C481S BTK were plated at the same cell number and density as the above experiments and were treated with RC-1, IRC-1, or RNC-1 at the dose of 1.6, 8.0, 40, 200, and 1000 nM for 24 h. After completion of treatment, all the cells were collected and processed for western blot analysis.
# The collected cells and spleen tissues were lysed in RIPA lysis buffer (50 mM Tris-HCl, pH 7.4, 150 mM NaCl, 1% NP-40, 0.5% sodium deoxycholate, 0.1% SDS) supplemented with Halt™ Protease and Phosphatase Inhibitor Cocktail (Thermo Fisher Scientific, Cat. No. PI78440) immediately before use. Lysates were centrifuged at 15,000 × g for 10 min at 4 °C and the supernatant was quantified for total protein concentration using the Pierce BCA Protein Assay (Thermo Fisher Scientific, Cat. No. 23225). Thirty micrograms of protein were loaded onto sodium dodecyl sulfate−polyacrylamide gel for electrophoresis (Bio-Rad) and transferred onto PVDF membranes (Millipore, Cat. No. IPVH00010). […] Imaging was performed using the ECL Prime chemiluminescent western blot detection reagents (GE Healthcare, Cat. No. RPN2232) by visualization of the blots to X-Ray film or with an Imager (Kindle Biosciences, Cat. No. D1001). All western blots were subsequently processed and quantified with Imager software. Protein level was normalized to β-actin or GAPDH loading controls.
# Mino cells = assay: AlamarBlue cell viability assay, Mino; type: cell-based; details: for Mino Cell Viability%: Figure 2f, 5 replicates
# Protocol: as §1
# T1 sequence (Q06187 whole entry C481S): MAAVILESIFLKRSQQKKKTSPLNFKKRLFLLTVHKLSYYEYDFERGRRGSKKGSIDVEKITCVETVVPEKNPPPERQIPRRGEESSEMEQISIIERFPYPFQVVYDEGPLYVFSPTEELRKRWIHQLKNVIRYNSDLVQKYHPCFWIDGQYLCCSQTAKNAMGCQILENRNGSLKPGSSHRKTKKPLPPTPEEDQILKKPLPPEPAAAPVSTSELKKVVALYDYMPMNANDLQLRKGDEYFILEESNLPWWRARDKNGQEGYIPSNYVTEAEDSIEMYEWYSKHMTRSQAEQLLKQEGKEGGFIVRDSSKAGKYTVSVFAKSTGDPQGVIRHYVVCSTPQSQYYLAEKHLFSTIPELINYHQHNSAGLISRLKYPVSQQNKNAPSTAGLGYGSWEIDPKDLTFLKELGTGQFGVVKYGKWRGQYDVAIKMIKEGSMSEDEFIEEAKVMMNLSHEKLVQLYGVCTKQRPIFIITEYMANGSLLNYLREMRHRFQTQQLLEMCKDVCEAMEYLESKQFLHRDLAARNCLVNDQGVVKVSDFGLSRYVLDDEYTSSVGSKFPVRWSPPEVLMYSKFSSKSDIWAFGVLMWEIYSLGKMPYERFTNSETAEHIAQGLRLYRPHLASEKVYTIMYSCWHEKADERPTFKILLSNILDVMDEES
smiles,measurement,setting,value
CN(CC=CC(=O)N1CCCC(n2nc(-c3ccc(Oc4ccccc4)cc3)c3c(N)ncnc32)C1)CCCNC(=O)CNc1cccc2c1C(=O)N(C1CCC(=O)NC1=O)C2=O (stereo not drawn) [IRC-1],"recovery at 16 h, 10 μM",[1],17.4%
same,"Papp at 16 h, 10 μM",[1],< 0.0245 ×10⁻⁶ cm/s
same,IC50,MOLM-14 cells,2700 nM
same,"Cell viability, MOML-14",MOLM-14 cells; drug concentration 1.00E-05 M,18.0378 and 23.8364 and 27.2416 and 22.4354 and 21.8906
same,"Cell viability, MOML-14",MOLM-14 cells; drug concentration 1.60E-08 M,95.6375 and 84.8576 and 100.21 and 79.6428 and 95.3845
same,"Cell viability, MOML-14",MOLM-14 cells; drug concentration 2.00E-06 M,77.6385 and 69.5439 and 88.1655 and 70.6919 and 85.8499
same,"Cell viability, MOML-14",MOLM-14 cells; drug concentration 3.20E-09 M,83.1063 and 84.2544 and 98.5173 and 96.2017 and 79.9735
same,"Cell viability, MOML-14",MOLM-14 cells; drug concentration 4.00E-07 M,95.365 and 106.398 and 86.1807 and 91.7653 and 81.4134
same,"Cell viability, MOML-14",MOLM-14 cells; drug concentration 6.40E-10 M,91.6096 and 88.3017 and 105.931 and 90.734 and 74.6225
same,"Cell viability, MOML-14",MOLM-14 cells; drug concentration 8.00E-08 M,76.0624 and 92.5825 and 94.7813 and 82.8144 and 77.7553
same,BTK degradation (in words),C481S mutant BTK,much more effective degradation of the BTK C481S mutant than its wild-type
CN1C(=O)CCC(N2C(=O)c3cccc(NCC(=O)NCCCN(C)C(C)(C)C=C(C#N)C(=O)N4CCCC(n5nc(-c6ccc(Oc7ccccc7)cc6)c6c(N)ncnc65)C4)c3C2=O)C1=O (stereo not drawn) [RC-1-Me],IC50,MOLM-14 cells,210 nM
same,"Cell viability, MOML-14",MOLM-14 cells; drug concentration 1.00E-05 M,5.925 and 2.684 and 5.158 and 0.5402 and 1.464
same,"Cell viability, MOML-14",MOLM-14 cells; drug concentration 1.60E-08 M,108.445 and 78.2274 and 85.8427 and 61.7071 and 70.0718
same,"Cell viability, MOML-14",MOLM-14 cells; drug concentration 2.00E-06 M,12.3031 and 8.922 and 10.0028 and 5.594 and 8.609
same,"Cell viability, MOML-14",MOLM-14 cells; drug concentration 3.20E-09 M,105.5 and 93.5975 and 67.3881 and 77.0075 and 77.9834
same,"Cell viability, MOML-14",MOLM-14 cells; drug concentration 4.00E-07 M,48.707 and 38.2511 and 45.3611 and 24.9024 and 42.2243
same,"Cell viability, MOML-14",MOLM-14 cells; drug concentration 6.40E-10 M,105.5 and 122.177 and 88.0908 and 73.4874 and 67.8761
same,"Cell viability, MOML-14",MOLM-14 cells; drug concentration 8.00E-08 M,81.0853 and 58.6749 and 68.6428 and 51.3383 and 65.994
CC(C)(C)C=C(C#N)C(=O)N1CCCC(n2nc(-c3ccc(Oc4ccccc4)cc3)c3c(N)ncnc32)C1 (stereo not drawn) [RC-Ctrl],IC50,MOLM-14 cells,500 nM
same,"Cell viability, MOML-14",MOLM-14 cells; drug concentration 1.00E-05 M,7.067 and 3.271 and 5.661 and 1.305 and 2.339
same,"Cell viability, MOML-14",MOLM-14 cells; drug concentration 1.60E-08 M,100.163 and 86.7229 and 69.3512 and 65.5718 and 65.0973
same,"Cell viability, MOML-14",MOLM-14 cells; drug concentration 2.00E-06 M,19.6597 and 13.6262 and 19.5071 and 12.6093 and 12.5585
same,"Cell viability, MOML-14",MOLM-14 cells; drug concentration 3.20E-09 M,99.2136 and 96.6714 and 77.7744 and 79.5709 and 66.0125
same,"Cell viability, MOML-14",MOLM-14 cells; drug concentration 4.00E-07 M,73.5374 and 63.2161 and 57.9961 and 48.3526 and 44.7427
same,"Cell viability, MOML-14",MOLM-14 cells; drug concentration 6.40E-10 M,106.654 and 105.722 and 82.8418 and 81.5368 and 73.0798
same,"Cell viability, MOML-14",MOLM-14 cells; drug concentration 8.00E-08 M,93.8411 and 82.0283 and 73.1815 and 65.3176 and 60.962
CN(CCCNC(=O)CNc1cccc2c1C(=O)N(C1CCC(=O)NC1=O)C2=O)CCCC(=O)N1CCCC(n2nc(-c3ccc(Oc4ccccc4)cc3)c3c(N)ncnc32)C1 (stereo not drawn) [RNC-1],"recovery at 16 h, 10 μM",[1],30%
same,"Papp at 16 h, 10 μM",[1],< 0.00209 ×10⁻⁶ cm/s
same,MOLM-14 Cell Viability%,MOLM-14 cells; 1.00E-05 M,22.564% and 21.8706% and 28.4317% and 19.6302% and 20.5903%
same,MOLM-14 Cell Viability%,MOLM-14 cells; 1.60E-08 M,88.2112% and 80.7255% and 82.3435% and 80.6899% and 90.8606%
same,MOLM-14 Cell Viability%,MOLM-14 cells; 2.00E-06 M,59.495% and 70.377% and 65.6472% and 60.4907% and 61.7354%
same,MOLM-14 Cell Viability%,MOLM-14 cells; 3.20E-09 M,88.958% and 75.6935% and 86.6821% and 75.5334% and 84.3883%
same,MOLM-14 Cell Viability%,MOLM-14 cells; 4.00E-07 M,78.8051% and 78.5206% and 78.325% and 79.1785% and 78.2717%
same,MOLM-14 Cell Viability%,MOLM-14 cells; 6.40E-10 M,75.0356% and 77.596% and 87.8023% and 83.7127% and 80.761%
same,MOLM-14 Cell Viability%,MOLM-14 cells; 8.00E-08 M,68.7056% and 84.1394% and 79.712% and 75.2134% and 77.276%
same,IC50,MOLM-14 cells,4100 nM
same,Mino Cell Viability%,Mino cells; 1.00E-06 M,58.0853% and 51.9026% and 45.6712% and 52.4594%
same,Mino Cell Viability%,Mino cells; 1.60E-09 M,101.95% and 90.6294% and 68.165% and 98.7947% and 93.12%
same,Mino Cell Viability%,Mino cells; 2.00E-07 M,37.8282% and 87.963% and 68.8682% and 84.564% and 91.6647%
same,Mino Cell Viability%,Mino cells; 3.20E-10 M,102.731% and 88.3341% and 102.301% and 86.4979% and 82.7278%
same,Mino Cell Viability%,Mino cells; 4.00E-08 M,90.0141% and 69.2003% and 110.3% and 97.7887% and 98.2185%
same,Mino Cell Viability%,Mino cells; 5.00E-06 M,16.067% and 36.4022% and 19.085% and 31.8214% and 33.179%
same,Mino Cell Viability%,Mino cells; 8.00E-09 M,96.0404% and 89.3401% and 104.098% and 90.522% and 101.012%
same,IC50,"Mino cells; Homo sapiens, Mino cells, 72 h, Alamar Blue",1000 nM
